Reference: article PMC5149029, “New Aspects of Silibinin Stereoisomers and their 3-O-galloyl Derivatives on Cytotoxicity and Ceramide Metabolism in Hep G2 hepatocarcinoma Cell Line” (Iranian Journal of Pharmaceutical Research : IJPR, 2016)

Legend:
[1] = test system: Hep G2 cells; experiment: Quantifying of total ceramide (HPLC, NDA derivatisation); assay type: cell-based, human; conditions: for Ceramide content with respect to control: Hep G2, 50 µM and higher concentrations
Description: (§1) The cell line was grown in RPMI-1640 medium supplemented with L-glutamine 2 mM, HEPESNa 25 mM, penicillin 100 U/mL, streptomycin 100 μg/mL and 10% […] (FBS) at 37 °C in a humidified atmosphere containing 5% CO2. Hep G2 cells were seeded at 1 × 10^6 cells/mL and sub cultured every 2–3 days after 60–80% confluence was reached. To prepare the lysates cells attached to the culture plate were scraped off with a cell scraper and collected in a 1.5 mL tube by centrifugation. The cell pellets were rinsed with PBS, suspended in sterile water, and then lysed by sonication. For each experiment, the cells were treated separately with increasing concentrations of silibinin derivatives (0, 25, 50, 75, 100, 125, 150, 175 and 200 μM) and incubated for 48 h.
Sample (3 µL of cell extract cell lysate) was mixed with 3 µL of an ACDase assay solution (0.2 M citrate–phosphate buffer, pH 4.5, 0.3 M NaCl, 0.2% Igepal CA-630, 10% FBS, 50 ng/µL ACDase) and incubated at 37 °C for 1 h. The reaction was stopped by adding ethanol (1:5) and centrifuged for 5 min at 13,000 × g. 10 µL of the supernatant was transferred into 20 µL of 25 mM sodium borate buffer (pH 9.0) containing 1.25 mM sodium cyanide and 1.25 mM NDA. The reaction mixture was incubated at 50 °C for 10min, diluted with ethanol (1:4), and centrifuged for 5 min at 13,000 × g. 5 µL of the supernatant was applied to high-performance liquid chromatography (HPLC) for analysis. The HPLC system consisted of Waters 600 S controller, 616 pump, 474 scanning fluorescence detector, 717 auto sampler (Waters, Milford, MA) and BetaBasic-C18 (20 cm × 4.6 mm) column with 3 µM particle size (Thermo Electron, Bellefonte, PA) which was not temperature regulated. All chromatographic procedures were carried out at room temperature using a mobile phase of 90% methanol at a flow rate of 1.0 mL/min. The fluorescent derivatives were monitored at the excitation wavelength of 252 nm and the emission wavelength of 483 nm ([35]). […]

[2] = test system: caspase-9; experiment: Caspase-9 activity, colorimetric substrate Ac-LEHD-pNA; assay type: cell-based, human; conditions: Hep G2, 48 h, control 0.26
Description: as §1
(§2) The activities of caspase-3 and 9 were measured using colorimetric substrates. Cells were added to a lysis buffer (100 mM HEPES [pH 7.5], 0.1% CHAPS, 1 mM PMSF, 10 mM MDTT, 1 mM EDTA) and placed on ice for 30 min. After the cells were centrifuged at 10,000 × g for 10 min at 4 °C, 50 μg of protein from the supernatants was added to each of the caspase substrates. The colorimetric substrates for caspase-3 and 9 were Ac-DEVD-pNA (Asp-Glu-Val-Asp-pNA) and Ac-LEHD-pNA (N-acetyl-Leu-Glu-His-Asp-pNA), respectively. After a 2 h incubation, to measure p-nitroanilide absorbance was determined at 405 nm ([34]).

[3] = test system: caspase-3; experiment: Caspase-3 activity, colorimetric substrate Ac-DEVD-pNA; assay type: cell-based, human; conditions: Hep G2, 48 h, control 0.38
Description: as §1, §2

[4] = biological target: T1, Acid ceramidase (ACDase) (Homo sapiens, UniProt Q13510); experiment: ACDase activity assay (fluorogenic); assay type: cell-based; conditions: for ACDase activity in cell extract compared to control: Hep G2, 125 µM and higher concentrations
T1 construct: endogenous in cells; host or cells: Hep G2
T1 sequence (Q13510 22-395): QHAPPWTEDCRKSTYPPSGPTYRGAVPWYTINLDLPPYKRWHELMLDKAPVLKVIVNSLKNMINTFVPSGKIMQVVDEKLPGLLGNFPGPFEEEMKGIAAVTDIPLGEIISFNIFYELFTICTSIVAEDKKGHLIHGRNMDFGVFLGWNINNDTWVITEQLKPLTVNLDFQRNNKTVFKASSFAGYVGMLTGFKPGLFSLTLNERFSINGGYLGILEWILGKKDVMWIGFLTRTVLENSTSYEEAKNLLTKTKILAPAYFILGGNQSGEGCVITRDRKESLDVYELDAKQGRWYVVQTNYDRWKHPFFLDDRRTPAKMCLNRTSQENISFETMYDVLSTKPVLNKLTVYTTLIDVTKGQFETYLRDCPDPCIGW
Description: as §1
ACDase activity was measured in intact cells and in cell lysates by fluorogenic assays. For intact cell assays, cells (10,000/well) were seeded into 96-well plates in 10% FBS medium. After 24 h, medium was removed and replaced with 5% FBS medium containing indicated concentrations of silibinin derivatives (controls contained ethanol vehicle). Plates were placed in a tissue culture incubator at 37 °C, 5% CO2 for 24 h and cell viability assays were conducted in parallel. Fluorogenic substrate (ethanol vehicle) was then added to a final concentration of 16μM (125 μL final well volume), and the plates were incubated for 3 h at 37 °C, 5% CO2. To complete the assays, 50 μL methanol and 100 μL NaIO4 (2.5 mg/mL) in 0.1 M glycine buffer with a pH of 10.6 were added and the plates were incubated in a dark place for 2 h at 37 °C. Fluorescence was measured in the UV range (365 nm excitation/410–460 nm emission) using a GloMax® multi-detection system (Promega, Madison, WI).
To measure ACDase activity in cell lysates, cells were harvested using trypsin/EDTA, washed three times in ice-cold PBS and re-suspended at a concentration of 1 × 10^6 cells/mL in 0.2 M sucrose. After sonication on ice (microtip, 5–10 s), lysates were centrifuged at 20,000 × g at 4 °C for 15 min to remove debris. Protein in the supernatant was measured using the BCA assay (Pierce Products, Thermo Scientific, Rockford, IL) and bovine serum albumin standard curves. Supernatant protein (60 μg) was added to 96-well plates containing the indicated compounds and sodium acetate–acetic acid buffer, pH 4.5 (25 mM), and incubated for 1 h at 37 °C, in final well volume of 100 μL. Fluorescent substrate was added to a final concentration of 40 μM (125 μL total well volume), and the assay was incubated in the dark at 37 °C for 3 h. Fluorescence was then measured as described above ([23]).

| SMILES | Ceramide content with respect to control [1] | Caspase-9 (ΔOD 405nm) ([2]; 25 micro molar) | Caspase-9 (ΔOD 405nm) ([2]; 50 micro molar) | Caspase-9 (ΔOD 405nm) ([2]; 75 micro molar) | Caspase-9 (ΔOD 405nm) ([2]; 100 micro molar) | Caspase-9 (ΔOD 405nm) ([2]; 125 micro molar) | Caspase-9 (ΔOD 405nm) ([2]; 150 micro molar) | Caspase-9 (ΔOD 405nm) ([2]; 175 micro molar) | Caspase-9 (ΔOD 405nm) ([2]; 200 micro molar) | Caspase-3 (ΔOD 405nm) ([3]; 25 micro molar) | Caspase-3 (ΔOD 405nm) ([3]; 50 micro molar) | Caspase-3 (ΔOD 405nm) ([3]; 75 micro molar) | Caspase-3 (ΔOD 405nm) ([3]; 100 micro molar) | Caspase-3 (ΔOD 405nm) ([3]; 125 micro molar) | Caspase-3 (ΔOD 405nm) ([3]; 150 micro molar) | Caspase-3 (ΔOD 405nm) ([3]; 175 micro molar) | Caspase-3 (ΔOD 405nm) ([3]; 200 micro molar) | ACDase activity in cell extract compared to control [4] | other results |
| --- | --- | --- | --- | --- | --- | --- | --- | --- | --- | --- | --- | --- | --- | --- | --- | --- | --- | --- | --- |
| COc1cc([C@H]2Oc3cc([C@H]4Oc5cc(O)cc(O)c5C(=O)[C@@H]4OC(=O)c4cc(O)c(O)c(O)c4)ccc3O[C@@H]2CO)ccc1O [SGA, 3-O-galloyl silybin A] | significant rises | 0.23 ± 0.029 ΔOD 405nm | 0.40 ± 0.053 ΔOD 405nm | 0.55 ± 0.070 ΔOD 405nm | 0.86 ± 0.136 ΔOD 405nm | 0.69 ± 0.103 ΔOD 405nm | 0.80 ± 0.124 ΔOD 405nm | 1.19 ± 0.147 ΔOD 405nm | 1.30 ± 0.167 ΔOD 405nm | 0.35 ± 0.038 ΔOD 405nm | 0.46 ± 0.062 ΔOD 405nm | 0.58 ± 0.070 ΔOD 405nm | 0.67 ± 0.084 ΔOD 405nm | 0.83 ± 0.114 ΔOD 405nm | 0.97 ± 0.134 ΔOD 405nm | 1.12 ± 0.147 ΔOD 405nm | 1.26 ± 0.164 ΔOD 405nm | markedly inhibited | – |
| COc1cc([C@@H]2Oc3cc([C@H]4Oc5cc(O)cc(O)c5C(=O)[C@@H]4O)ccc3O[C@H]2CO)ccc1O [SB, silybin B] | – | 0.30 ± 0.048 ΔOD 405nm | 0.41 ± 0.055 ΔOD 405nm | 0.47 ± 0.070 ΔOD 405nm | 0.56 ± 0.067 ΔOD 405nm | 0.60 ± 0.083 ΔOD 405nm | 0.67 ± 0.105 ΔOD 405nm | 0.81 ± 0.126 ΔOD 405nm | 0.89 ± 0.114 ΔOD 405nm | 0.34 ± 0.050 ΔOD 405nm | 0.45 ± 0.060 ΔOD 405nm | 0.58 ± 0.076 ΔOD 405nm | 0.53 ± 0.065 ΔOD 405nm | 0.62 ± 0.095 ΔOD 405nm | 0.73 ± 0.105 ΔOD 405nm | 0.82 ± 0.130 ΔOD 405nm | 0.79 ± 0.096 ΔOD 405nm | markedly inhibited | – |
| COc1cc([C@H]2Oc3cc([C@H]4Oc5cc(O)cc(O)c5C(=O)[C@@H]4O)ccc3O[C@@H]2CO)ccc1O [SA, silybin A] | – | 0.41 ± 0.060 ΔOD 405nm | 0.50 ± 0.089 ΔOD 405nm | 0.61 ± 0.102 ΔOD 405nm | 0.73 ± 0.110 ΔOD 405nm | 0.84 ± 0.133 ΔOD 405nm | 0.96 ± 0.143 ΔOD 405nm | 1.10 ± 0.164 ΔOD 405nm | 1.16 ± 0.147 ΔOD 405nm | 0.45 ± 0.055 ΔOD 405nm | 0.58 ± 0.080 ΔOD 405nm | 0.65 ± 0.098 ΔOD 405nm | 0.79 ± 0.107 ΔOD 405nm | 0.91 ± 0.133 ΔOD 405nm | 0.98 ± 0.148 ΔOD 405nm | 1.12 ± 0.164 ΔOD 405nm | 1.06 ± 0.152 ΔOD 405nm | – | ACDase activity, effect of cell exposure ([4]; Hep G2, throughout the concentration range (0-200 µM)): could not alter ACDase activity; inhibition at 200 µM ([4]; HepG2, Hep G2 cell extract, 200 µM): 18% |
| COc1cc([C@@H]2Oc3cc([C@H]4Oc5cc(O)cc(O)c5C(=O)[C@@H]4OC(=O)c4cc(O)c(O)c(O)c4)ccc3O[C@H]2CO)ccc1O [SGB, 3-O-galloyl silybin B] | significant rises | 0.30 ± 0.048 ΔOD 405nm | 0.41 ± 0.053 ΔOD 405nm | 0.46 ± 0.046 ΔOD 405nm | 0.53 ± 0.077 ΔOD 405nm | 0.70 ± 0.093 ΔOD 405nm | 0.89 ± 0.108 ΔOD 405nm | 1.18 ± 0.192 ΔOD 405nm | 1.34 ± 0.207 ΔOD 405nm | 0.45 ± 0.065 ΔOD 405nm | 0.56 ± 0.070 ΔOD 405nm | 0.62 ± 0.081 ΔOD 405nm | 0.78 ± 0.095 ΔOD 405nm | 0.98 ± 0.128 ΔOD 405nm | 1.21 ± 0.160 ΔOD 405nm | 1.53 ± 0.209 ΔOD 405nm | 1.63 ± 0.221 ΔOD 405nm | markedly inhibited | Maximum ceramide level compared to control ([1]; Hep G2, 200 µM (the highest dose)): approximately 3.7 fold |
